Experimental data as given in patent US8933232B2, “1,3,4-oxadiazole and 1,3,4-thiadiazole beta-lactamase inhibitors” (priority 2012, dated 2015).
Where a name gives a salt, the structure may show the parent alone.

What follows are molecules tested on bacterial strains that express KPC β-lactamases (assay: Synergy MIC / standard BLI potentiation MIC assay against strains expressing KPC β-lactamases). Details: in the presence of a β-lactam; comparator Avibactam.
Format: cell-based
Experimental: The experimental protocol was performed according to Clinical and Laboratory Standards Institute (CLSI) guidelines with modifications as described below (CLSI guidelines can be derived from the CLSI document M07-A9 published in January 2012: “Methods for Dilution Antimicrobial Susceptibility Tests for Bacteria That Grow Aerobically; Approved Standard-Ninth Edition”).
To prepare for MIC testing, frozen glycerol stocks of clinical isolates (Klebsiella pneumoniae, Eschericia coli, Enterobacter spp, Citrobacter spp, or Pseudomonas aeruginosa) were used to streak for isolated colonies on rich, non-selective, tryptic soy agar containing 5% sheep's blood (TSAB). Frozen glycerol stocks of laboratory engineered, isogenic E. coli strains, which contain cloned β-lactamase expressing plasmids were used to streak for isolated colonies on rich, selective LB agar supplemented with 25 μg/mL tetracycline to maintain the plasmid. All strains were incubated at 37° C. for 18-24 hrs.
On the day of testing, primary cultures were started by scraping off 5-10 colonies from the TSAB plates containing clinical strains or the tetracycline supplemented LB plates containing engineered strains. The clinical strain material was suspended in ˜5 mL of cation adjusted Mueller Hinton Broth (CAMHB) in 14 mL culture tubes. The engineered strain material was suspended in CAMHB (supplemented with 25 μg/mL tetracycline) in 14 mL culture tubes. All strains were incubated at 37° C. with aeration (200 rpm) for ˜2 hrs until the optical density at 600 nm (OD600) was >0.1.
The two compound components of the assay were each diluted in CAMHB and added to the 96-well broth microdilution assay plates. 50 μL of the β-lactam was added to each well of the assay plate in 2-fold dilutions with final concentrations ranging from 128 to 0.13 μg/mL. 25 μL, of the BLI compound was added to all wells in the broth microdilution plates at a final concentration of 4 μg/mL. Inoculum cultures were prepared by standardizing the primary cultures to OD600=0.1 and then adding 20 μL of the adjusted primary culture per 1 mL CAMHB for clinical strains or CAMHB (supplemented with tetracycline at 100 μg/mL) for engineered strains, so that the final inoculum density was ˜10^5 colony forming units per milliliter. Diluted inoculum cultures were used to inoculate 25 μl, per well in 96-well broth microdilution assay plates. The final volume of each well was 100 μL and contained a β-lactam at different concentrations, a BLIcompound at 4 μg/mL concentration, the bacterial culture at an OD600 of approximately 0.001 and when necessary tetracycline at 25 μg/mL.
Plates were incubated for 18-20 hours at 37° C. with aeration (200 rpm). Following incubation, growth was confirmed visually placing plates over a viewing apparatus (stand with a mirror underneath) and then OD600 was measured using a SpectraMax 340PC384 plate reader (Molecular Devices, Sunnyvale, Calif.). Growth was defined as turbidity that could be detected with the naked eye or achieving minimum OD600 of 0.1. MIC values were defined as the lowest concentration producing no visible turbidity.
The synergy MIC (sMIC) assay determines the concentration of the BLI required to potentiate the activity of a fixed concentration of a β-lactam antibiotic against β-lactamase producing bacterial strains. The experimental protocol was performed according to Clinical and Laboratory Standards Institute (CLSI) guidelines with modifications as described below (CLSI guidelines can be derived from the CLSI document M07-A9 published in January 2012: “Methods for Dilution Antimicrobial Susceptibility Tests for Bacteria That Grow Aerobically; Approved Standard-Ninth Edition”). […]

SMILES | more active than Avibactam for at least one bacterial strain that expresses KPC β-lactamase and/or better spectrum of activity against KPC strains
N[C@H]1C[C@H](CCc2nnc([C@@H]3CC[C@@H]4CN3C(=O)N4OS(=O)(=O)O)o2)C1 [Compound 753, (2S,5R)-2-(5-(2-((1r,3R)-3-aminocyclobutyl)ethyl)-1,3,4-oxadiazol-2-yl)-7-oxo-1,6-diazabicyclo[3.2.1]octan-6-yl hydrogen sulfate] | more active than Avibactam
N[C@H]1C[C@H](Cc2nnc([C@@H]3CC[C@@H]4CN3C(=O)N4OS(=O)(=O)O)o2)C1 [Compound 751, (2S,5R)-2-(5-(((1r,3S)-3-aminocyclobutyl)methyl)-1,3,4-oxadiazol-2-yl)-7-oxo-1,6-diazabicyclo[3.2.1]octan-6-yl hydrogen sulfate] | more active than Avibactam
N=C1NCC(c2nnc([C@@H]3CC[C@@H]4CN3C(=O)N4OS(=O)(=O)O)o2)N1 (stereo partly drawn) [Compound 767, (2S,5R)-2-(5-(2-iminoimidazolidin-4-yl)-1,3,4-oxadiazol-2-yl)-7-oxo-1,6-diazabicyclo[3.2.1]octan-6-yl hydrogen sulfate] | more active than Avibactam
O=C1N2C[C@@H](CC[C@H]2c2nnc(CCN3CCNCC3)o2)N1OS(=O)(=O)O [Compound 776, (2S,5R)-7-oxo-2-(5-(2-(piperazin-1-yl)ethyl)-1,3,4-oxadiazol-2-yl)-1,6-diazabicyclo[3.2.1]octan-6-yl hydrogen sulfate] | more active than Avibactam
O=C1N2C[C@@H](CC[C@H]2c2nnc(CCNCCO)o2)N1OS(=O)(=O)O [Compound 736, (2S,5R)-2-(5-(2-((2-hydroxyethyl)amino)ethyl)-1,3,4-oxadiazol-2-yl)-7-oxo-1,6-diazabicyclo[3.2.1]octan-6-yl hydrogen sulfate] | more active than Avibactam
NC(=O)c1nnc([C@@H]2CC[C@@H]3CN2C(=O)N3OS(=O)(=O)O)o1 [Compound 706, (2S,5R)-2-(5-carbamoyl-1,3,4-oxadiazol-2-yl)-7-oxo-1,6-diaza-bicyclo[3.2.1]octan-6-yl hydrogen sulfate] | more active than Avibactam
NC1CC(NCc2nnc([C@@H]3CC[C@@H]4CN3C(=O)N4OS(=O)(=O)O)o2)C1 (stereo partly drawn) [Compound 755, (2S,5R)-2-(5-(((3-aminocyclobutyl)amino)methyl)-1,3,4-oxadiazol-2-yl)-7-oxo-1,6-diazabicyclo[3.2.1]octan-6-yl hydrogen sulfate] | more active than Avibactam
N=C(N)NCC1(c2nnc([C@@H]3CC[C@@H]4CN3C(=O)N4OS(=O)(=O)O)o2)CC1 [Compound 723, (2S,5R)-2-(5-(1-(guanidinomethyl)cyclopropyl)-1,3,4-oxadiazol-2-yl)-7-oxo-1,6-diazabicyclo[3.2.1]octan-6-yl hydrogen sulfate] | more active than Avibactam
N=C(N)N1CC(c2nnc([C@@H]3CC[C@@H]4CN3C(=O)N4OS(=O)(=O)O)o2)C1 [Compound 709, (2S,5R)-2-(5-(1-carbamimidoylazetidin-3-yl)-1,3,4-oxadiazol-2-yl)-7-oxo-1,6-diazabicyclo[3.2.1]octan-6-yl hydrogen sulfate] | more active than Avibactam
O=C1N2C[C@@H](CC[C@H]2c2nnc(CCCCNC3CCNCC3)o2)N1OS(=O)(=O)O [Compound 772, (2S,5R)-7-oxo-2-(5-(4-(piperidin-4-ylamino)butyl)-1,3,4-oxadiazol-2-yl)-1,6-diazabicyclo[3.2.1]octan-6-yl hydrogen sulfate] | more active than Avibactam
N=C(N)NCCc1nnc([C@@H]2CC[C@@H]3CN2C(=O)N3OS(=O)(=O)O)s1 [Compound 794, (2S,5R)-2-(5-(2-guanidinoethyl)-1,3,4-thiadiazol-2-yl)-7-oxo-1,6-diazabicyclo[3.2.1]octan-6-yl hydrogen sulfate] | more active than Avibactam
N=C(N)NC[C@H](O)c1nnc([C@@H]2CC[C@@H]3CN2C(=O)N3OS(=O)(=O)O)o1 [Compound 732, (2S,5R)-2-(5-((S)-2-guanidino-1-hydroxyethyl)-1,3,4-oxadiazol-2-yl)-7-oxo-1,6-diazabicyclo[3.2.1]octan-6-yl hydrogen sulfate] | more active than Avibactam
N[C@@H]1CN[C@H](c2nnc([C@@H]3CC[C@@H]4CN3C(=O)N4OS(=O)(=O)O)o2)C1 [Compound 760, (2S,5R)-2-(5-((2S,4S)-4-aminopyrrolidin-2-yl)-1,3,4-oxadiazol-2-yl)-7-oxo-1,6-diazabicyclo[3.2.1]octan-6-yl hydrogen sulfate] | more active than Avibactam
N[C@H]1C[C@@H](Cc2nnc([C@@H]3CC[C@@H]4CN3C(=O)N4OS(=O)(=O)O)o2)C1 [Compound 728, (2S,5R)-2-(5-(((1s,3R)-3-aminocyclobutyl)methyl)-1,3,4-oxadiazol-2-yl)-7-oxo-1,6-diazabicyclo[3.2.1]octan-6-yl hydrogen sulfate] | more active than Avibactam
O=C1N2C[C@@H](CC[C@H]2c2nnc(C3CCNCC3)o2)N1OS(=O)(=O)O [Compound 711, (2S,5R)-7-oxo-2-(5-(piperidin-4-yl)-1,3,4-oxadiazol-2-yl)-1,6-diazabicyclo[3.2.1]octan-6-yl hydrogen sulfate] | more active than Avibactam
O=C1N2C[C@@H](CC[C@H]2c2nnc(COC3CNC3)o2)N1OS(=O)(=O)O [Compound 744, (2S,5R)-2-(5-((azetidin-3-yloxy)methyl)-1,3,4-oxadiazol-2-yl)-7-oxo-1,6-diazabicyclo[3.2.1]octan-6-yl hydrogen sulfate] | more active than Avibactam
O=C1N2C[C@@H](CC[C@H]2c2nnc(CCNC3CNC3)o2)N1OS(=O)(=O)O [Compound 745, (2S,5R)-2-(5-(2-(azetidin-3-ylamino)ethyl)-1,3,4-oxadiazol-2-yl)-7-oxo-1,6-diazabicyclo[3.2.1]octan-6-yl hydrogen sulfate] | more active than Avibactam
CC(C)(N)Cc1nnc([C@@H]2CC[C@@H]3CN2C(=O)N3OS(=O)(=O)O)o1 [Compound 737, (2S,5R)-2-(5-(2-amino-2-methylpropyl)-1,3,4-oxadiazol-2-yl)-7-oxo-1,6-diazabicyclo[3.2.1]octan-6-yl hydrogen sulfate] | more active than Avibactam
O=C1N2C[C@@H](CC[C@H]2c2nnc(CCC3CNC3)o2)N1OS(=O)(=O)O [Compound 742, (2S,5R)-2-(5-(2-(azetidin-3-yl)ethyl)-1,3,4-oxadiazol-2-yl)-7-oxo-1,6-diazabicyclo[3.2.1]octan-6-yl hydrogen sulfate] | more active than Avibactam
